Counter-ions that a name gives are not always drawn.
What was measured:
A549 = assay: Inhibition of cell viability (MTS), A549 (negative control line); type: cell-based; settings: Homo sapiens, A549 cells (negative control), 96 hours incubation
Method in brief: (§1)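 Cells seeded at 2,000-7,500/well, attached ~24 h, then treated in duplicate with 1:2.5 serial dilutions at 0.5% final DMSO. Viability by MTS; EC50 from non-linear fit after background correction and normalisation to DMSO. MKN45 and EBC1 are cMET-dependent; A549 serves as negative control.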

[1] = target: T1, cMET enzyme (amino acids 1023-1360) (Homo sapiens, UniProt P08581); assay: Determination of inhibition of cMET (capillary electrophoresis, phosphorylated peptide product); type: biochemical; settings: 1.2 nM cMET, 50 μM ATP, 2 μM FL-2 peptide, 2 hours room temperature
T1 construct: The cMET enzyme (amino acids 1023-1360) nominally at 24 μM was held at −80° C. until use; His tag (N, cleaved yes); made in house; host or cells: Sf9 cells
T1 sequence (P08581 1023-1360): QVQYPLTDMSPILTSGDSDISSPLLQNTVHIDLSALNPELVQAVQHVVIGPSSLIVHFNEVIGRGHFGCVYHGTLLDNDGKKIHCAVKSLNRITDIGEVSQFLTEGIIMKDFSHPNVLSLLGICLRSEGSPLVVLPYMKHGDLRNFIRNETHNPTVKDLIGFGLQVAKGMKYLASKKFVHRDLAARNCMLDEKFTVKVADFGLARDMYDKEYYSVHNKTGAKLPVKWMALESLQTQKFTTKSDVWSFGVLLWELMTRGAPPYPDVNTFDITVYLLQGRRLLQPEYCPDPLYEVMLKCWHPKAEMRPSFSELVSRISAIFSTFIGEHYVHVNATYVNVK

EBC1 = assay: Inhibition of cell viability (MTS), EBC1; type: cell-based; settings: Homo sapiens, 96 hours incubation
Method in brief: as §1

MKN45 = assay: Inhibition of cell viability (MTS), MKN45; type: cell-based; settings: 96 hours incubation
Method in brief: as §1

[2] = Homo sapiens, MKN-45, 96 h, MKN45 cells
[3] = Homo sapiens, MKN-45, MKN45 cells

Compound	EC50 (A549; A549, 96 h) [µM]	IC50 [1] [µM]	EC50 (EBC1; EBC-1, 96 h, EBC1 cells) [µM]	EC50 (MKN45; [2]) [µM]	EC50 (A549) [µM]	EC50 (EBC1; EBC-1, EBC1 cells) [µM]	EC50 (MKN45; [3]) [µM]	EC50 (MKN45; MKN45 cells) [µM]
C[C@H](c1ccc2nc(NC(=O)C3CC3)cn2n1)c1nnc2ccc(-c3cnn(C)c3)cn12 [Compound 51, (R)—N-(6-(1-(6-(1-methyl-1H-pyrazol-4-yl)-[1,2,4]triazolo[4,3-a]pyridin-3-yl)ethyl)imidazo[1,2-b]pyridazin-2-yl)cyclopropanecarboxamide]	> 50	> 0.1	> 0.1	> 0.1				
Cn1cc(-c2ccc3nnc(Sc4ccc5nc(NC(=O)C6CC6)cn5n4)n3c2)cn1 [Compound 5, N-(6-(6-(1-methyl-1H-pyrazol-4-yl)-[1,2,4]triazolo[4,3-a]pyridin-3-ylthio)-imidazo[1,2-b]pyridazin-2-yl)cyclopropanecarboxamide]	> 50	< 0.03	< 0.035	< 0.1				
O=C(Nc1cn2nc(Sc3nnc4ccc(-c5csc(N6CCOCC6)n5)cn34)ccc2n1)C1CC1 [Compound 110, N-(6-(6-(2-morpholinothiazol-4-yl)-[1,2,4]triazolo[4,3-a]pyridin-3-ylthio)imidazo[1,2-b]pyridazin-2-yl)cyclopropanecarboxamide]	> 50	0.03 to 0.059	0.03 to 0.059	0.1 to 0.249				
O=C(Nc1cn2nc(Sc3nnc4ccc(-c5ccc(N6CCOCC6)nc5)cn34)ccc2n1)C1CC1 [Compound 103, N-(6-(6-(6-morpholinopyridin-3-yl)-[1,2,4]triazolo[4,3-a]pyridin-3-ylthio)imidazo[1,2-b]pyridazin-2-yl)cyclopropanecarboxamide]	> 50	< 0.03	< 0.03	0.03 to 0.059				
CS(=O)(=O)c1ccc(-c2ccc3nnn(Cc4ccc5nc(NC(=O)C6CC6)cn5n4)c3c2)cc1 [Compound 17]	> 19.5	0.06 to 0.1	< 0.035	< 0.1				
O=C(Nc1cn2nc(Sc3nnc4ccc(-c5cnn(CCO)c5)cn34)ccc2n1)C1CC1 [Compound 32]	> 50	< 0.03	0.035 to 0.099	0.1 to 0.249				
CC(c1ccc2nc(NC(=O)C3CC3)cn2n1)c1nnc2ccc(-c3cccc(C#N)c3)cn12 (stereo not shown) [Compound 57, N-(6-(1-(6-(3-cyanophenyl)-[1,2,4]triazolo[4,3-a]pyridin-3-yl)ethyl)imidazo[1,2-b]pyridazin-2-yl)cyclopropanecarboxamide]	> 50	< 0.03	< 0.03	< 0.03				
CC(C)Oc1cccc(-c2ccc3nnc(C(F)(F)c4ccc5nc(NC(=O)C6CC6)cn5n4)n3c2)c1 [Compound 93, N-(6-(difluoro(6-(3-isopropoxyphenyl)-[1,2,4]triazolo[4,3-a]pyridin-3-yl)methyl)imidazo[1,2-b]pyridazin-2-yl)cyclopropanecarboxamide]	8 to 25	0.06 to 0.1	0.03 to 0.059	0.03 to 0.059				
N#Cc1cc(-c2ccc3nnc(Sc4ccc5nc(NC(=O)C6CC6)cn5n4)n3c2)cnc1O [Compound 108, N-(6-(6-(5-cyano-6-hydroxypyridin-3-yl)-[1,2,4]triazolo[4,3-a]pyridin-3-ylthio)imidazo[1,2-b]pyridazin-2-yl)cyclopropanecarboxamide]	> 50	0.03 to 0.059	8 to 25	8 to 25				
O=C(Nc1cn2nc(Sc3nnc4ccc(Cl)cn34)ccc2n1)C1CC1 [Compound 9, N-(6-(6-chloro-[1,2,4]triazolo[4,3-a]pyridin-3-ylthio)imidazo[1,2-b]pyridazin-2-yl)cyclopropanecarboxamide]	8 to 25	0.06 to 0.1	0.1 to 0.199	0.25 to 0.63				
CC(C)c1ccc2nnc(Sc3ccc4nc(NC(=O)C5CC5)cn4n3)n2c1 [Compound 26, N-(6-(6-isopropyl-[1,2,4]triazolo[4,3-a]pyridin-3-ylthio)imidazo[1,2-b]pyridazin-2-yl)cyclopropanecarboxamide]	> 19.5	< 0.03	< 0.035	< 0.1				
COc1cccc(-c2ccc3nnc(Sc4ccc5nc(NC(=O)C6CC6)cn5n4)n3c2)n1 [Compound 101, N-(6-(6-(6-methoxypyridin-2-yl)-[1,2,4]triazolo[4,3-a]pyridin-3-ylthio)imidazo[1,2-b]pyridazin-2-yl)cyclopropanecarboxamide]	> 50	< 0.03	0.03 to 0.059	0.1 to 0.249				
CS(=O)(=O)c1ccc(-c2ccc3nnc(C(F)(F)c4ccc5nc(NC(=O)C6CC6)cn5n4)n3c2)cc1 [Compound 85, N-(6-(difluoro(6-(4-(methylsulfonyl)phenyl)-[1,2,4]triazolo[4,3-a]pyridin-3-yl)methyl)imidazo[1,2-b]pyridazin-2-yl)cyclopropanecarboxamide]	> 50	< 0.03	< 0.03	< 0.03				
COCCOCn1cc(-c2ccc3nnc(Sc4ccc5nc(NC(=O)C6CC6)cn5n4)n3c2)cn1 [Compound 29, N-(6-(6-(1-((2-methoxyethoxy)methyl)-1H-pyrazol-4-yl)-[1,2,4]triazolo[4,3-a]pyridin-3-ylthio)imidazo[1,2-b]pyridazin-2-yl)cyclopropanecarboxamide]		0.06 to 0.1			> 50	0.035 to 0.099	< 0.1	
CC(c1ccc2nc(NC(=O)C3CC3)cn2n1)c1nnc2ccc(-c3cccc(F)c3)cn12 (stereo not shown) [Compound 65, N-(6-(1-(6-(3-fluorophenyl)-[1,2,4]triazolo[4,3-a]pyridin-3-yl)ethyl)imidazo[1,2-b]pyridazin-2-yl)cyclopropanecarboxamide]	> 50	< 0.03	< 0.03	< 0.03				
C=C(C)c1ccc2nnc(Sc3ccc4nc(NC(=O)C5CC5)cn4n3)n2c1 [Compound 25, N-(6-(6-(prop-1-en-2-yl)-[1,2,4]triazolo[4,3-a]pyridin-3-ylthio)imidazo[1,2-b]pyridazin-2-yl)cyclopropanecarboxamide]	8 to 25	< 0.03	< 0.035	< 0.1				
N#Cc1ccc(-c2ccc3nnc(C(F)(F)c4ccc5nc(NC(=O)C6CC6)cn5n4)n3c2)cc1 [Compound 83, N-(6-((6-(4-cyanophenyl)-[1,2,4]triazolo[4,3-a]pyridin-3-yl)difluoromethyl)imidazo[1,2-b]pyridazin-2-yl)cyclopropanecarboxamide]	> 50	< 0.03	< 0.03	< 0.03				
CC(C)c1ccc(-c2ccc3nnc(C(F)(F)c4ccc5nc(NC(=O)C6CC6)cn5n4)n3c2)cc1 [Compound 80, N-(6-(difluoro(6-(4-isopropylphenyl)-[1,2,4]triazolo[4,3-a]pyridin-3-yl)methyl)imidazo[1,2-b]pyridazin-2-yl)cyclopropanecarboxamide]	> 50	0.03 to 0.059	0.03 to 0.059	< 0.03				
CS(=O)(=O)c1cccc(-c2ccc3nnc(C(F)(F)c4ccc5nc(NC(=O)C6CC6)cn5n4)n3c2)c1 [Compound 88, N-(6-(difluoro(6-(3-(methylsulfonyl)phenyl)-[1,2,4]triazolo[4,3-a]pyridin-3-yl)methyl)imidazo[1,2-b]pyridazin-2-yl)cyclopropanecarboxamide]	> 50	< 0.03	< 0.03	< 0.03				
COc1cccc(-c2ccc3nnc(C(C)c4ccc5nc(NC(=O)C6CC6)cn5n4)n3c2)c1 (stereo not shown) [Compound 61, N-(6-(1-(6-(3-methoxyphenyl)-[1,2,4]triazolo[4,3-a]pyridin-3-yl)ethyl)imidazo[1,2-b]pyridazin-2-yl)cyclopropanecarboxamide]	> 50	< 0.03	< 0.03	< 0.03				
N#Cc1cccc(-c2ccc3nnc(Sc4ccc5nc(NC(=O)C6CC6)cn5n4)n3c2)c1 [Compound 104, N-(6-(6-(3-cyanophenyl)-[1,2,4]triazolo[4,3-a]pyridin-3-ylthio)imidazo[1,2-b]pyridazin-2-yl)cyclopropanecarboxamide]	> 50	< 0.03	< 0.03	< 0.03				
CC(C)(O)c1ccc2nnc(Sc3ccc4nc(NC(=O)C5CC5)cn4n3)n2c1 [Compound 40, N-(6-(6-(2-hydroxypropan-2-yl)-[1,2,4]triazolo[4,3-a]pyridin-3-ylthio)imidazo[1,2-b]pyridazin-2-yl)cyclopropanecarboxamide]		> 0.1			> 50	> 0.2	> 0.63	
Cc1ccc2nnc(Sc3ccc4nc(NC(=O)C5CC5)cn4n3)n2c1 [Compound 42, N-(6-(6-methyl-[1,2,4]triazolo[4,3-a]pyridin-3-ylthio)imidazo[1,2-b]pyridazin-2-yl)cyclopropanecarboxamide]	> 50	0.06 to 0.1	0.035 to 0.099	0.1 to 0.249				
O=C(Nc1cn2nc(Sc3nnc4ccccn34)ccc2n1)C1CC1 [3 (HCl Salt)]	8 to 25	> 0.1	0.1 to 0.199					0.25 to 0.63
O=C(Nc1cn2nc(Sc3nnc4ccc(Br)cn34)ccc2n1)C1CC1 [Compound 4, N-(6-(6-bromo-[1,2,4]triazolo[4,3-a]pyridin-3-ylthio)imidazo[1,2-b]pyridazin-2-yl)cyclopropanecarboxamide]	> 50	0.03 to 0.059	< 0.035	0.1 to 0.249				

Reference: patent US8178534B2, “cMET inhibitors” (Takeda Pharmaceutical Company Limited, priority 2008, dated 2012)
